Reference: PubChem BioAssay (NCI)
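Growth conditions: 96-well plates. Treatment: test compound, 48 hours, 5 concentrations. Analysis: linear interpolation between bracketing concentrations; unreached endpoints set to highest concentration. GI50: concentration for 50% inhibition of growth. At the TGI there is no net growth.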

What was measured:
Experiment in all cases: NCI-60 cell line screen, 48 h
NCI-H23 lung = tested on: NCI-H23 lung
HL-60(TB) leukemia = tested on: HL-60(TB) leukemia
SR leukemia = tested on: SR leukemia
KM12 colon = tested on: KM12 colon
HCT-15 colon = tested on: HCT-15 colon
HOP-92 NSCLC = tested on: HOP-92 NSCLC
OVCAR-5 ovarian = tested on: OVCAR-5 ovarian
HOP-62 NSCLC = tested on: HOP-62 NSCLC
NCI-H522 lung = tested on: NCI-H522 lung
SK-MEL-28 melanoma = tested on: SK-MEL-28 melanoma

Row | Structure (SMILES) | TGI (NCI-H23 lung) | TGI (HL-60(TB) leukemia) | TGI (SR leukemia) | TGI (KM12 colon) | TGI (HCT-15 colon) | TGI (HOP-92 NSCLC) | TGI (OVCAR-5 ovarian) | GI50 (HL-60(TB) leukemia) | GI50 (SR leukemia) | GI50 (HOP-62 NSCLC) | TGI (HOP-62 NSCLC) | GI50 (KM12 colon) | GI50 (HCT-15 colon) | GI50 (HOP-92 NSCLC) | GI50 (NCI-H522 lung) | TGI (NCI-H522 lung) | GI50 (SK-MEL-28 melanoma) | TGI (SK-MEL-28 melanoma) | GI50 (OVCAR-5 ovarian) | GI50 (NCI-H23 lung)
1 | Oc1ccc(Br)cc1C=Nc1ccc(N=Cc2cc(Br)ccc2O)cc1 | > 100 µM | > 100 µM | > 100 µM | > 100 µM | > 100 µM | > 100 µM | > 100 µM |  |  |  |  |  |  |  |  |  |  |  |  | 
2 | O=C(NO)c1ccc(CN(c2cnccn2)c2cnccn2)cc1 |  | 82.7 µM | > 100 µM | 24.2 µM | 46.8 µM | 35.1 µM | 52.6 µM | 26600 nM | 6220 nM | 15400 nM | 34.8 µM | 10300 nM | 18500 nM | 16400 nM | 4190 nM | 18 µM | 11000 nM | 36.4 µM | 14700 nM | 
3 | CC(=O)OCCOCNC(=S)N/N=C/c1ccc(Br)s1 | > 100 µM | > 40.2 µM | > 100 µM | > 100 µM | > 100 µM | > 100 µM | > 100 µM |  |  |  | > 100 µM |  |  |  |  | > 100 µM |  | > 100 µM |  | 
4 | COc1ccc(Cc2cnc(NC(=O)c3ccc4c(c3)OCCO4)s2)cc1 | > 100 µM | > 100 µM | > 100 µM | 11.1 µM | > 100 µM | > 76.6 µM | > 72.6 µM | 40.9 nM | 11.4 nM | 60.2 nM | > 100 µM | 26.4 nM | 16.7 nM | 3620 nM | < 12.5 nM |  | 3750 nM | > 83.8 µM | 86.6 nM | 53.7 nM
5 | CCCCCCCCCCN1CCC(N2CCCCC2)CC1 | 14.5 µM | 3.77 µM | 2.98 µM | 3.75 µM | 3.73 µM | 8.5 µM | 14.4 µM | 1100 nM | 627 nM | 2380 nM | 7.64 µM | 1820 nM | 1380 nM | 763 nM | 1930 nM | 5.54 µM | 1780 nM | 3.41 µM | 3740 nM | 3350 nM
6 | COc1ccc(/C=C(/c2ccccc2)[N+](=O)[O-])cc1 | 3.63 µM | 6.87 µM | 6.95 µM | 3.5 µM | 1.86 µM | 2.48 µM | 3.26 µM | 2350 nM | 464 nM | 1820 nM | 3.79 µM | 1850 nM | 446 nM | 1080 nM | 1650 nM | 4.16 µM | 1570 nM | 3.19 µM | 1620 nM | 1740 nM
7 | CC1=C(C(=O)NNS(=O)(=O)c2ccc(C)cc2)CC(C(=O)NNS(=O)(=O)c2ccc(C)cc2)=C(C)N1 | > 100 µM | > 100 µM | > 100 µM | > 100 µM | > 100 µM |  | > 100 µM |  |  |  | > 100 µM |  |  |  |  | > 100 µM |  | > 100 µM |  | 
8 | COc1ccc2c3c(Nc4ccc(/C(C)=N/O)cc4)[nH]c4ccccc4c-3c(N=O)c2c1 | 18.2 µM | 3.06 µM | 4.27 µM | 4.39 µM | 4.56 µM | 36 µM | 12.2 µM | 1260 nM | 1470 nM | 11600 nM | 30.9 µM | 1130 nM | 1810 nM | 13100 nM | 18900 nM | 41.9 µM | 27000 nM | 50.6 µM | 3020 nM | 4590 nM
9 | Cc1ncc([N+](=O)[O-])n1CCNS(=O)(=O)CCCn1ncnc1[N+](=O)[O-] | > 100 µM | > 100 µM | > 100 µM | > 100 µM | > 100 µM | > 100 µM | > 100 µM |  |  |  | > 100 µM |  |  |  |  | > 100 µM |  | > 100 µM |  | 
10 | O=[N+]([O-])c1ccc(CSCc2ccc(Cl)cc2)cc1 | > 100 µM | > 100 µM | > 100 µM | > 100 µM | > 100 µM | > 100 µM | > 100 µM |  |  |  | > 100 µM |  |  |  |  | > 100 µM |  | > 100 µM |  | 
11 | C/C(=N\NC(=S)N1CC2CCC(CC2)C1)c1ccccn1 | 3.34 µM | 1.21 µM | 2.22 µM | 1.59 µM | 2.51 µM | 0.793 µM | 2.73 µM | 48.2 nM | 42.4 nM | 142 nM | 1.69 µM | 83.7 nM | 31.3 nM | 25.5 nM | 195 nM | 1.27 µM | 767 nM | 2.93 µM | 94.9 nM | 17.9 nM
12 | C=CCn1c2c(sc1=S)C(S)N=CN2 (stereo not drawn) | > 100 µM | > 100 µM | > 100 µM | > 100 µM | > 100 µM | 55 µM | > 100 µM |  |  |  | > 100 µM |  |  |  |  | > 100 µM |  | > 100 µM |  | 
